The target in one assay is T1, CjAto5 (Williopsis jadinii, UniProt A0A1E4RU05).
T1 construct: gene CYBJADRAFT_178915; full ORF in p416GPD, expressed in S. cerevisiae IMX1000; cloned from DSM 2361 DNA
T1 sequence (A0A1E4RU05 1-272): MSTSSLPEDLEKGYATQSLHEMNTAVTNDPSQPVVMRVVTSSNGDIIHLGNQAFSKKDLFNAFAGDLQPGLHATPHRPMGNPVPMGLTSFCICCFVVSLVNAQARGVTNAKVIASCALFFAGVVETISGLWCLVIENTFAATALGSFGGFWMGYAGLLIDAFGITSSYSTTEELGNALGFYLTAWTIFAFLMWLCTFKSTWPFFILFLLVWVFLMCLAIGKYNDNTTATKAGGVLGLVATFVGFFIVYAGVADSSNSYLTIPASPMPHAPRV
The experiment in a line: […]-succinate uptake, initial rates in S. cerevisiae IMX1000. In kind it is cell-based. As to conditions: pH 5.0, 30 °C; labelled compound.

In the next assay the target is T2, CjAto2 (Williopsis jadinii, UniProt A0A1E4S9G0).
T2 construct: gene CYBJADRAFT_7539; full ORF in p416GPD, expressed in S. cerevisiae IMX1000; cloned from DSM 2361 DNA
The assay is described as above. As to conditions: pH 5.0, 30 °C; labelled compound. In kind it is cell-based.

The structures appear in SMILES notation.

T2 sequence (A0A1E4S9G0 1-262): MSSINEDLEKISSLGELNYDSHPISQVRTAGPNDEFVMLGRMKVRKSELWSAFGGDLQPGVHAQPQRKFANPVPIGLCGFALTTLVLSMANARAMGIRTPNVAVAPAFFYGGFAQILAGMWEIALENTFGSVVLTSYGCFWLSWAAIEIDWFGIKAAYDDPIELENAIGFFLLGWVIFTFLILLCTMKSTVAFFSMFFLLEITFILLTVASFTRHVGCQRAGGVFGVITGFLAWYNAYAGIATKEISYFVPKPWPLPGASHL

With `O=C(O)CCC(=O)O` [succinic acid], the Km on CjAto5 amounted to 450 ± 90 µM; on CjAto2, 3380 ± 820 µM.

Values taken from paper PMC8779868, “Uncovering Novel Plasma Membrane Carboxylate Transporters in the Yeast Cyberlindnera jadinii” (Journal of Fungi, 2022).
